Data: paper PMC6470738, “Characterization of the High-Affinity Drug Ligand Binding Site of Mouse Recombinant TSPO” (International Journal of Molecular Sciences, 2019)
“And” between values parts separate entries of the source, which are not always exact repeats. Equal values may be shown once. “Also recorded” adds a separate entry of the source. Read-outs that look alike come from different tables or passages of the source.

Assays:
[1] = system: TSPO A147T (polymorphism rs6971); conditions: human polymorphism rs6971; cited from earlier work
rec-mTSPO WT = target: T1, rec-mTSPO WT (Mus musculus, UniProt P50637); test: [3H]-PK 11195 saturation binding to rec-mTSPO reconstituted in proteoliposomes
T1 construct: His tag; made in house; host or cells: E. coli BL21 DE3
Description: (§1) SDS-solubilized mTSPO was reincorporated in proteoliposomes by mixing with SDS solubilized lipids (dimyristoyl phosphatidyl choline/dimyristoyl phosphatidyl ethanolamine, 9:1) at a lipid to protein ratio of 5 (w/w). The detergent was removed using Bio-Beads SM2 according to published protocols. Reconstitution was followed by combining the fluorescence and optical changes as previously described.
(§2) Proteoliposomes containing recombinant mTSPO were incubated with various concentrations of [^3H]-PK 11195 (SA, 83.5 Ci/mmol, Perkin Elmer SAS, Courtaboeuf, France) in phosphate buffer saline (PBS). The bound ligand was quantified by liquid scintillation spectrometry after filtration on Whatman Filters GF/C (Sigma-Aldrich, Saint Quentin Fallavier, France) according to published protocols. The Kd and Bmax values were determined by fitting the saturation curves with the following equation Ligand bound = (Bmax × Ligand)/(Kd + Ligand).

rec-mTSPO F100A = target: T2, rec-mTSPO F100A (Mus musculus, UniProt P50637, F100A); test: as above
T2 construct: His tag; made in house; host or cells: E. coli
Description: (§3) Mutations were performed using the QuikChange Site-Directed Mutagenesis kit (Stratagene, France) according to published protocols. In brief, miniprep pET-PBR plasmid double-strand DNA was used as a template. Synthetic oligonucleotide primer pairs containing a point mutation or deletion, each complementary to the opposing strand of the vector, were extended during temperature cycling by pfu DNA polymerase. The nicked vector DNAs containing the desired mutations were then transfected into E. coli.
as §1, §2

rec-mTSPO Y34F = target: T3, rec-mTSPO Y34F (Mus musculus, UniProt P50637, Y34F); test: as above
T3 construct: His tag; made in house; host or cells: E. coli
Description: as §3, §1, §2

rec-mTSPO Y34F/F100A = target: T4, rec-mTSPO Y34F/F100A (Mus musculus, UniProt P50637, F100A/Y34F); test: as above
T4 construct: His tag; made in house; host or cells: E. coli
Description: as §3, §1, §2

rec-mTSPO Y34F/F99A = target: T5, rec-mTSPO Y34F/F99A (Mus musculus, UniProt P50637, F99A/Y34F); test: as above
T5 construct: His tag; made in house; host or cells: E. coli
Description: as §3, §1, §2

rec-mTSPO Y34S = target: T6, rec-mTSPO Y34S (Mus musculus, UniProt P50637, Y34S); test: as above
T6 construct: His tag; made in house; host or cells: E. coli
Description: as §3, §1, §2

rec-mTSPO Δ41–51 = target: T7, rec-mTSPO Δ41–51 (Mus musculus, UniProt P50637, DEL41-51); test: as above; conditions: Δ41–50 as printed in Table 1
T7 construct: His tag; made in house; host or cells: E. coli
Description: as §3, §1, §2

[2] = target: T8, rec-mTSPO ΔC-ter (153–169) (Mus musculus, UniProt P50637); test: as above
T8 construct: His tag; made in house; host or cells: E. coli
Description: as §3, §1, §2

[3] = system: WT and mutants of TSPO reconstituted in liposomes; test: [3H]-PK 11195 saturation binding to rec-mTSPO reconstituted in proteoliposomes, all constructs; parameters: species or system mouse; conditions: all stoichiometries obtained
Description: as §1, §2

rec-mTSPO [4] = target: T9, rec-mTSPO (Mus musculus, UniProt P50637); test: Limited trypsin digestion of rec-mTSPO solubilized in DPC; conditions: DPC 0.1%, 30 °C, TSPO:trypsin 30:1; 100 µM PK 11195 and increasing concentrations
T9 construct: His tag; made in house; host or cells: E. coli BL21 DE3
Description: Proteolysis was performed by mixing rec-mTSPO (0.2 mg/mL) solubilized in DPC (0.1%) and a phosphate buffer (10 mM at pH 7.0) with protease at a TSPO:Trypsin ratio of 30:1 (w/w).

rec-mTSPO [5] = target: T9, rec-mTSPO; test: Circular dichroism of rec-mTSPO in DPC with PK 11195; conditions: increasing amounts of PK 11195, high ligand over protein molar ratios
Description: Far UV circular dichroism spectra were recorded on a Jobin-Yvon CD6 spectropolarimeter operated at room temperature according to published protocols [19, 25, 45]. Briefly, a detergent solubilized mTSPO sample (5 µM) in a 10 mM sodium phosphate buffer solution was placed in a 0.2 mm path length quartz cuvette (Hellma, Paris, France). The CD spectra were recorded in the 185 to 270 nm wavelength range with a 0.2 nm step resolution, 1 s signal averaging time and 1 nm bandwidth. The spectra were averaged over five scans, corrected for background and smoothed over 25 points. A consensus secondary structure content was estimated by spectral deconvolution using CONTINLL, CDSSTR and Selcon software and datasets of reference proteins SMP50 (37 soluble proteins and 13 membrane proteins) and SP37 (37 soluble proteins) [46], as well as CDFriend.

TSPO Wild-type = target: TSPO Wild-type; parameters: method as in Farges et al. (1994); conditions: yeast mitochondria, ref Farges et al. (1994), read-out: PK 11195 Kd; cited from earlier work
TSPO ∆2-20 = target: TSPO ∆2-20; parameters: method as in Farges et al. (1994); conditions: yeast mitochondria, ref Farges et al. (1994), read-out: PK 11195 Kd; cited from earlier work
human TSPO ∆15-35 = conditions: cited from earlier work
TSPO ∆158-159 = target: TSPO ∆158-159; parameters: method as in Farges et al. (1994); conditions: yeast mitochondria, ref Farges et al. (1994), read-out: PK 11195 Kd; cited from earlier work
TSPO ∆157-169 = target: TSPO ∆157-169; parameters: method as in Farges et al. (1994); conditions: yeast mitochondria, ref Farges et al. (1994), read-out: PK 11195 Kd; cited from earlier work
TSPO ∆156-169 = target: TSPO ∆156-169; parameters: method as in Farges et al. (1994); conditions: yeast mitochondria, ref Farges et al. (1994), read-out: PK 11195 Kd; cited from earlier work
TSPO ∆2-20,158-169 = target: TSPO ∆2-20,158-169; parameters: method as in Farges et al. (1994); conditions: yeast mitochondria, ref Farges et al. (1994), read-out: PK 11195 Kd; cited from earlier work
mammalian TSPO ∆5-20 = system: mammalian TSPO ∆5-20; parameters: method as in Li et al. (1998); conditions: bacterial protoplast, control = wild type, ref Li et al. (1998); cited from earlier work
mammalian TSPO ∆41-51 = system: mammalian TSPO ∆41-51; parameters: method as in Li et al. (1998); conditions: bacterial protoplast, control = wild type, ref Li et al. (1998); cited from earlier work
mammalian TSPO ∆108-119 = system: mammalian TSPO ∆108-119; parameters: method as in Li et al. (1998); conditions: bacterial protoplast, control = wild type, ref Li et al. (1998); cited from earlier work
mammalian TSPO ∆120-133 = system: mammalian TSPO ∆120-133; parameters: method as in Li et al. (1998); conditions: bacterial protoplast, control = wild type, ref Li et al. (1998); cited from earlier work
mammalian TSPO ∆141-152 = system: mammalian TSPO ∆141-152; parameters: method as in Li et al. (1998); conditions: bacterial protoplast, control = wild type, ref Li et al. (1998); cited from earlier work
mammalian TSPO ∆153-169 = system: mammalian TSPO ∆153-169; parameters: method as in Li et al. (1998); conditions: bacterial protoplast, control = wild type, ref Li et al. (1998); cited from earlier work
TSPO V26T = system: TSPO V26T; parameters: method as in PMID 7808437; conditions: cited from earlier work
TSPO W42 mutation = system: TSPO W42 mutation; parameters: method as in PMID 7808437; conditions: cited from earlier work
TSPO W47 mutation = system: TSPO W47 mutation; parameters: method as in PMID 7808437; conditions: cited from earlier work
TSPO R32G = system: TSPO R32G; parameters: method as in PMID 7808437; conditions: cited from earlier work
TSPO K39G = system: TSPO K39G; parameters: method as in PMID 7808437; conditions: cited from earlier work
TSPO R103A = system: TSPO R103A; parameters: method as in PMID 7808437; conditions: cited from earlier work
TSPO2 = system: TSPO2; parameters: method as in PMID 19729679; conditions: paralogous TSPO2; cited from earlier work
rec-mTSPO [6] = target: T9, rec-mTSPO; conditions: cited from earlier work

## COc1ccccc1CN(C(C)=O)c1cnccc1Oc1ccccc1 [PBR28]
[1]
  decrease of the affinity due to A147T polymorphism: one or two orders of magnitude

## CCC(C)N(C)C(=O)c1cc2ccccc2c(-c2ccccc2Cl)n1 (centres unmarked) [PK 11195, N-butan-2-yl-1-(2-chlorophenyl)-N-methylisoquinoline-3-carboxamide]
rec-mTSPO WT; proteoliposomes, fit of saturation curve
  Kd: 8 ± 3 nM
rec-mTSPO WT; stoichiometry, nmol PK 11195 bound per mg recombinant TSPO
  Bmax: 25 ± 3 nmol/mg
rec-mTSPO F100A
  Bmax: 25 ± 7 nmol/mg
  Kd: 20 ± 5 nM
rec-mTSPO Y34F
  Bmax: 27 ± 3 nmol/mg
  Kd: 20 ± 3 nM
rec-mTSPO Y34F/F100A; Y34F/F100A vs WT
  decrease in affinity for PK 11195 compared with WT: 20 fold
rec-mTSPO Y34F/F100A; Y34F/F100A, proteoliposomes
  Bmax: 25 ± 10 nmol/mg
  Kd: 150 ± 20 nM
rec-mTSPO Y34F/F99A; Y34F/F99A vs WT
  decrease in affinity for PK 11195 compared with WT: 20 fold
rec-mTSPO Y34F/F99A; Y34F/F99A, proteoliposomes
  Bmax: 25 ± 10 nmol/mg
  Kd: 150 ± 20 nM
rec-mTSPO Y34S
  Bmax: 25 ± 5 nmol/mg
  Kd: 40 ± 7 nM
rec-mTSPO Δ41–51
  Bmax: 25 ± 8 nmol/mg
  Kd: 20 ± 8 nM
[2]
  Bmax: 30 ± 10 nmol/mg
  Kd: 20 ± 5 nM
[3]
  stoichiometry (Bmax): 25–30 nmol of PK 11195 bound per mg of recombinant TSPO
rec-mTSPO [4]
  effect on proteolytic cleavage of rec-mTSPO by trypsin: protected against cleavage
rec-mTSPO [5]
  effect on CD spectrum of rec-mTSPO: increasing changes in the CD spectrum
TSPO Wild-type
  Kd: 6 ± 3 nM
TSPO ∆2-20
  Kd: 25 ± 8 nM
Human TSPO ∆15-35; Δ15–35 of human TSPO overexpressed in yeast
  effect of deletion on PK 11195 binding: complete loss of PK 11195 binding; also recorded: loses its binding capacity
Human TSPO ∆15-35; ∆15-35, yeast mitochondria, ref Farges et al. (1994), read-out: PK 11195 Kd
  Kd: > 200 nM
TSPO ∆158-159
  Kd: 10 ± 6 nM
TSPO ∆157-169
  Kd: 9 ± 3 nM
TSPO ∆156-169
  Kd: 10 ± 4 nM
TSPO ∆2-20,158-169
  Kd: > 200 nM
Mammalian TSPO ∆5-20
  PK 11195 binding % of control: ~ 70 % of control
Mammalian TSPO ∆41-51
  PK 11195 binding % of control: ~ 55 % of control and 55 % of control
Mammalian TSPO ∆108-119
  PK 11195 binding % of control: ~ 70 % of control
Mammalian TSPO ∆120-133
  PK 11195 binding % of control: ~ 55 % of control
Mammalian TSPO ∆141-152
  PK 11195 binding % of control: ~ 75 % of control
Mammalian TSPO ∆153-169
  PK 11195 binding % of control: ~ 75 % of control and 75 % of control
TSPO V26T
  effect of mutation on PK 11195 binding: complete loss of PK 11195 binding
TSPO W42 mutation
  effect of mutation on PK 11195 binding: no effect
TSPO W47 mutation
  effect of mutation on PK 11195 binding: no effect
TSPO R32G
  effect of mutation on PK 11195 binding: no effect
TSPO K39G
  effect of mutation on PK 11195 binding: no effect
TSPO R103A
  effect of mutation on PK 11195 binding: no effect
TSPO2
  binding to TSPO2: not binding
[1]
  effect of A147T polymorphism on affinity: no effect
rec-mTSPO [6]; SDS-solubilized rec-mTSPO
  PK 11195 binding in detergent: no PK 11195 binding
rec-mTSPO [6]; detergent-solubilized, additional interaction between PK 11195 and detergent
  affinity with detergent-solubilized rec-mTSPO: micro-millimolar range
rec-mTSPO [6]; rec-mTSPO in the presence of DPC
  PK 11195 binding in detergent: observed
